{
  "source": "patent US9730938B2",
  "about": "“Bruton's tyrosine kinase inhibitor combinations and uses thereof” (Pharmacyclics LLC, priority 2014, dated 2017)",
  "experiment_in_all_cases": "Combined drug treatment cell viability, CellTiter-Glo assay (Example 2)",
  "type_in_all_cases": "cell-based",
  "conditions_in_all_cases": "3 days",
  "key": {"HBL-1": {"test_system": "HBL-1"}, "SU-DHL-2": {"test_system": "SU-DHL-2"}, "TMD8": {"test_system": "TMD8"}, "OCI-LY-3": {"test_system": "OCI-LY-3"}, "U2932": {"test_system": "U2932"}, "OCI-LY-10": {"test_system": "OCI-LY-10"}, "[1]": {"conditions": "ibrutinib 0 nM, JAK3 10 μM / MCL-1 3 μM alone"}, "[2]": {"conditions": "ibrutinib 0.0512 nM, JAK3 10 μM / MCL-1 3 μM / medium alone"}, "[3]": {"conditions": "ibrutinib 0.256 nM, JAK3 10 μM / MCL-1 3 μM / medium alone"}, "[4]": {"conditions": "ibrutinib 1.28 nM, JAK3 10 μM / MCL-1 3 μM / medium alone"}, "[5]": {"conditions": "ibrutinib 6.4 nM, JAK3 10 μM / MCL-1 3 μM / medium alone"}, "[6]": {"conditions": "ibrutinib 32 nM, JAK3 10 μM / MCL-1 3 μM / medium alone"}, "[7]": {"conditions": "ibrutinib 160 nM, JAK3 10 μM / MCL-1 3 μM / medium alone"}, "[8]": {"conditions": "ibrutinib 800 nM, JAK3 10 μM / MCL-1 3 μM / medium alone"}, "[9]": {"conditions": "ibrutinib 20000 nM, JAK3 10 μM / MCL-1 3 μM / medium alone"}, "[10]": {"conditions": "ibrutinib 40000 nM, JAK3 10 μM / MCL-1 3 μM / medium alone"}},
  "data": [
    {"smiles": "Cc1csc(=NC2CCCCC2)n1/N=C/c1ccc(O)c(O)c1O", "note": "[MIM1]", "values": [
      {"measurement": "luminescence (CellTiter-Glo)", "setting": "HBL-1; [1]", "value": 51241.07},
      {"measurement": "luminescence (CellTiter-Glo)", "setting": "HBL-1; [2]", "value": 27898.48},
      {"measurement": "luminescence (CellTiter-Glo)", "setting": "HBL-1; [3]", "value": 29488.62},
      {"measurement": "luminescence (CellTiter-Glo)", "setting": "HBL-1; [4]", "value": 35637.34},
      {"measurement": "luminescence (CellTiter-Glo)", "setting": "HBL-1; [5]", "value": 30743.57},
      {"measurement": "luminescence (CellTiter-Glo)", "setting": "HBL-1; [6]", "value": 31548.03},
      {"measurement": "luminescence (CellTiter-Glo)", "setting": "HBL-1; [7]", "value": 32832.47},
      {"measurement": "luminescence (CellTiter-Glo)", "setting": "HBL-1; [8]", "value": 28815.56},
      {"measurement": "luminescence (CellTiter-Glo)", "setting": "HBL-1; [9]", "value": 7366.12},
      {"measurement": "luminescence (CellTiter-Glo)", "setting": "HBL-1; [10]", "value": 26941.18},
      {"measurement": "luminescence (CellTiter-Glo)", "setting": "SU-DHL-2; [1]", "value": 59686.0},
      {"measurement": "luminescence (CellTiter-Glo)", "setting": "SU-DHL-2; [2]", "value": 55451.4},
      {"measurement": "luminescence (CellTiter-Glo)", "setting": "SU-DHL-2; [3]", "value": 53088.1},
      {"measurement": "luminescence (CellTiter-Glo)", "setting": "SU-DHL-2; [4]", "value": 54122.7},
      {"measurement": "luminescence (CellTiter-Glo)", "setting": "SU-DHL-2; [5]", "value": 53424.9},
      {"measurement": "luminescence (CellTiter-Glo)", "setting": "SU-DHL-2; [6]", "value": 51898.4},
      {"measurement": "luminescence (CellTiter-Glo)", "setting": "SU-DHL-2; [7]", "value": 50938.7},
      {"measurement": "luminescence (CellTiter-Glo)", "setting": "SU-DHL-2; [8]", "value": 51419.9},
      {"measurement": "luminescence (CellTiter-Glo)", "setting": "SU-DHL-2; [9]", "value": 17553.4},
      {"measurement": "luminescence (CellTiter-Glo)", "setting": "SU-DHL-2; [10]", "value": 49251.8},
      {"measurement": "luminescence (CellTiter-Glo)", "setting": "TMD8; [1]", "value": 36019.47},
      {"measurement": "luminescence (CellTiter-Glo)", "setting": "TMD8; [2]", "value": 19059.39},
      {"measurement": "luminescence (CellTiter-Glo)", "setting": "TMD8; [3]", "value": 18570.62},
      {"measurement": "luminescence (CellTiter-Glo)", "setting": "TMD8; [4]", "value": 18591.98},
      {"measurement": "luminescence (CellTiter-Glo)", "setting": "TMD8; [5]", "value": 19112.81},
      {"measurement": "luminescence (CellTiter-Glo)", "setting": "TMD8; [6]", "value": 19032.68},
      {"measurement": "luminescence (CellTiter-Glo)", "setting": "TMD8; [7]", "value": 19452.01},
      {"measurement": "luminescence (CellTiter-Glo)", "setting": "TMD8; [8]", "value": 18063.15},
      {"measurement": "luminescence (CellTiter-Glo)", "setting": "TMD8; [9]", "value": 4767.52},
      {"measurement": "luminescence (CellTiter-Glo)", "setting": "TMD8; [10]", "value": 15624.64},
      {"measurement": "luminescence (CellTiter-Glo)", "setting": "OCI-LY-3; [1]", "value": 80237.62},
      {"measurement": "luminescence (CellTiter-Glo)", "setting": "OCI-LY-3; [2]", "value": 76311.68},
      {"measurement": "luminescence (CellTiter-Glo)", "setting": "OCI-LY-3; [3]", "value": 80052.59},
      {"measurement": "luminescence (CellTiter-Glo)", "setting": "OCI-LY-3; [4]", "value": 80436.06},
      {"measurement": "luminescence (CellTiter-Glo)", "setting": "OCI-LY-3; [5]", "value": 73884.80},
      {"measurement": "luminescence (CellTiter-Glo)", "setting": "OCI-LY-3; [6]", "value": 75378.47},
      {"measurement": "luminescence (CellTiter-Glo)", "setting": "OCI-LY-3; [7]", "value": 65609.22},
      {"measurement": "luminescence (CellTiter-Glo)", "setting": "OCI-LY-3; [8]", "value": 74844.82},
      {"measurement": "luminescence (CellTiter-Glo)", "setting": "OCI-LY-3; [9]", "value": 75182.71},
      {"measurement": "luminescence (CellTiter-Glo)", "setting": "OCI-LY-3; [10]", "value": 74901.14},
      {"measurement": "luminescence (CellTiter-Glo)", "setting": "U2932; [1]", "value": 59686.00},
      {"measurement": "luminescence (CellTiter-Glo)", "setting": "U2932; [2]", "value": 55451.36},
      {"measurement": "luminescence (CellTiter-Glo)", "setting": "U2932; [3]", "value": 53088.09},
      {"measurement": "luminescence (CellTiter-Glo)", "setting": "U2932; [4]", "value": 54122.68},
      {"measurement": "luminescence (CellTiter-Glo)", "setting": "U2932; [5]", "value": 53424.93},
      {"measurement": "luminescence (CellTiter-Glo)", "setting": "U2932; [6]", "value": 51898.43},
      {"measurement": "luminescence (CellTiter-Glo)", "setting": "U2932; [7]", "value": 50938.68},
      {"measurement": "luminescence (CellTiter-Glo)", "setting": "U2932; [8]", "value": 51419.90},
      {"measurement": "luminescence (CellTiter-Glo)", "setting": "U2932; [9]", "value": 17553.45},
      {"measurement": "luminescence (CellTiter-Glo)", "setting": "U2932; [10]", "value": 49251.78},
      {"measurement": "luminescence (CellTiter-Glo)", "setting": "OCI-LY-10; [1]", "value": 43143.62},
      {"measurement": "luminescence (CellTiter-Glo)", "setting": "OCI-LY-10; [2]", "value": 33524.45},
      {"measurement": "luminescence (CellTiter-Glo)", "setting": "OCI-LY-10; [3]", "value": 26007.29},
      {"measurement": "luminescence (CellTiter-Glo)", "setting": "OCI-LY-10; [4]", "value": 18751.19},
      {"measurement": "luminescence (CellTiter-Glo)", "setting": "OCI-LY-10; [5]", "value": 11024.10},
      {"measurement": "luminescence (CellTiter-Glo)", "setting": "OCI-LY-10; [6]", "value": 8025.84},
      {"measurement": "luminescence (CellTiter-Glo)", "setting": "OCI-LY-10; [7]", "value": 8938.24},
      {"measurement": "luminescence (CellTiter-Glo)", "setting": "OCI-LY-10; [8]", "value": 9390.40},
      {"measurement": "luminescence (CellTiter-Glo)", "setting": "OCI-LY-10; [9]", "value": 9228.91},
      {"measurement": "luminescence (CellTiter-Glo)", "setting": "OCI-LY-10; [10]", "value": 10886.83}
    ]}
  ]
}
